Test results reported in patent publication US8569344B2, “N-piperidinyl acetamide derivatives as calcium channel blockers” (Zalicus Pharmaceuticals Ltd., priority 2008, dated 2013).

Key:
[1] = biological target: T1, human α1G T-type channels (Homo sapiens, UniProt O43497); test: T-type calcium channel block, whole cell patch clamp in HEK cells (α1G); type: cell-based; conditions: HEK cells, patch clamp, mainly non-inactivated protocol; values above 10 μM shown as 10 μM, below 0.30 μM shown as 0.30 μM; read-out: T-type Calcium Channel Block α1G IC50
T1 construct: expressed in transfected cells; host or cells: HEK 293
T1 sequence (O43497 whole entry): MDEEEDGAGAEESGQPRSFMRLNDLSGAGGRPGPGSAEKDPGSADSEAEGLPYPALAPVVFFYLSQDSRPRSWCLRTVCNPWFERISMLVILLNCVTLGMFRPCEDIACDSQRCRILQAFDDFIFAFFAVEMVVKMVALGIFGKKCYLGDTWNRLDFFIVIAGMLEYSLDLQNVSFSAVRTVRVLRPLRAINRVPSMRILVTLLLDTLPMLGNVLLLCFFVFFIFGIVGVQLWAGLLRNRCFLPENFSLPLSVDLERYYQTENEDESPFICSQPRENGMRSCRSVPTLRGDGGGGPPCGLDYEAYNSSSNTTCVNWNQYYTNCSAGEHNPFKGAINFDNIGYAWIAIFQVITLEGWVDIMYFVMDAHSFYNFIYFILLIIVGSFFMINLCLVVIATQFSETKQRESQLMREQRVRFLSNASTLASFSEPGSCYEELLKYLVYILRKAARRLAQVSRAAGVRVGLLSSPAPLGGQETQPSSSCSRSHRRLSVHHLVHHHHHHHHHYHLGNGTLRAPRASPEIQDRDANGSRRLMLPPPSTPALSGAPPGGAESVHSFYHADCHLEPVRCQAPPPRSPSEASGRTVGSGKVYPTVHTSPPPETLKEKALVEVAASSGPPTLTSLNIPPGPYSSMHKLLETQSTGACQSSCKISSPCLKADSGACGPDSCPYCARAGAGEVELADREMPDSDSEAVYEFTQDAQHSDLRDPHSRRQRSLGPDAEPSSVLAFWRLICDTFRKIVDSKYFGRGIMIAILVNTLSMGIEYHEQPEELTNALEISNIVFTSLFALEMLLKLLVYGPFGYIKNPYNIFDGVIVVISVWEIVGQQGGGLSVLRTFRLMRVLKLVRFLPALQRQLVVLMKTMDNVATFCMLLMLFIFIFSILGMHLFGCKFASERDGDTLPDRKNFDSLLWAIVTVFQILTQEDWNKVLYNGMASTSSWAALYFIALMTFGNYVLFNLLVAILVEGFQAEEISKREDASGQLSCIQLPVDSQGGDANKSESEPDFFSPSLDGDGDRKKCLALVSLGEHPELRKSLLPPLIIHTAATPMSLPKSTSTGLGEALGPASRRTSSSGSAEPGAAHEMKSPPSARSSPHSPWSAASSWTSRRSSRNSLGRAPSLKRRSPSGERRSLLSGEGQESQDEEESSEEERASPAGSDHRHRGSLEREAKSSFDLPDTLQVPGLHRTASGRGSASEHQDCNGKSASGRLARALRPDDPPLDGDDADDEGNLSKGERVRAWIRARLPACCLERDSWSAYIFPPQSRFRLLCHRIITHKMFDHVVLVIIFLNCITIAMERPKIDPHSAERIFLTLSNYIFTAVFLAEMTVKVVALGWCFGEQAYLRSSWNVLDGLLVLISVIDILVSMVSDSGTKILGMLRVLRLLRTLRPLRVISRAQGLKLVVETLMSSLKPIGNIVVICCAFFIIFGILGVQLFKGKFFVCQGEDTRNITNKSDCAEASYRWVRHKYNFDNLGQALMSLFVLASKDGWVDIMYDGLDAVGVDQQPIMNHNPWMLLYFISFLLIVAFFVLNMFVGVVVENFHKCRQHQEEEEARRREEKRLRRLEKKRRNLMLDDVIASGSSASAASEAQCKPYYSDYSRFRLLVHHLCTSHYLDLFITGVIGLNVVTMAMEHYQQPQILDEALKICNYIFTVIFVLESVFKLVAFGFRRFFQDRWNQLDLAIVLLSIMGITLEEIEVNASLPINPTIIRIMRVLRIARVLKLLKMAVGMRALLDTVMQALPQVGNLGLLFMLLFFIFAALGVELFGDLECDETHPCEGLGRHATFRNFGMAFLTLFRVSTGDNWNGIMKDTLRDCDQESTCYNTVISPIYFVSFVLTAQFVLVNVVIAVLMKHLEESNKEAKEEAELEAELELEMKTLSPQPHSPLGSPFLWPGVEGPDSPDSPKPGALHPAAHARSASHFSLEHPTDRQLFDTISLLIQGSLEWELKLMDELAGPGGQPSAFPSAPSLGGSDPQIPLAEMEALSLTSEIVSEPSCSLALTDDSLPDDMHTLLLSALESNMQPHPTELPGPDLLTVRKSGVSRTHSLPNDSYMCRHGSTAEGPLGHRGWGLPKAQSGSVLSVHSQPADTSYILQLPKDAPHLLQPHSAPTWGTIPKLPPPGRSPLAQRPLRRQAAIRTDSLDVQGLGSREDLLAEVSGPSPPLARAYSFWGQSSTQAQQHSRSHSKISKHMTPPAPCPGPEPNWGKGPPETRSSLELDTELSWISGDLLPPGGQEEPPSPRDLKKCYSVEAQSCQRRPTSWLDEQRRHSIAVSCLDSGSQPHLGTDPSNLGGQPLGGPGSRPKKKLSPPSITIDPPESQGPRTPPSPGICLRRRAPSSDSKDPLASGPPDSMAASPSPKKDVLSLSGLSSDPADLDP

[2] = biological target: T2, human α1H T-type channels (Homo sapiens, UniProt O95180); test: T-type calcium channel block, whole cell patch clamp in HEK cells (α1H); type: cell-based; conditions: HEK cells, patch clamp, mainly non-inactivated protocol; values above 10 μM shown as 10 μM; read-out: T-type Calcium Channel Block α1H IC50
T2 construct: expressed in transfected cells; host or cells: HEK 293
T2 sequence (O95180 whole entry): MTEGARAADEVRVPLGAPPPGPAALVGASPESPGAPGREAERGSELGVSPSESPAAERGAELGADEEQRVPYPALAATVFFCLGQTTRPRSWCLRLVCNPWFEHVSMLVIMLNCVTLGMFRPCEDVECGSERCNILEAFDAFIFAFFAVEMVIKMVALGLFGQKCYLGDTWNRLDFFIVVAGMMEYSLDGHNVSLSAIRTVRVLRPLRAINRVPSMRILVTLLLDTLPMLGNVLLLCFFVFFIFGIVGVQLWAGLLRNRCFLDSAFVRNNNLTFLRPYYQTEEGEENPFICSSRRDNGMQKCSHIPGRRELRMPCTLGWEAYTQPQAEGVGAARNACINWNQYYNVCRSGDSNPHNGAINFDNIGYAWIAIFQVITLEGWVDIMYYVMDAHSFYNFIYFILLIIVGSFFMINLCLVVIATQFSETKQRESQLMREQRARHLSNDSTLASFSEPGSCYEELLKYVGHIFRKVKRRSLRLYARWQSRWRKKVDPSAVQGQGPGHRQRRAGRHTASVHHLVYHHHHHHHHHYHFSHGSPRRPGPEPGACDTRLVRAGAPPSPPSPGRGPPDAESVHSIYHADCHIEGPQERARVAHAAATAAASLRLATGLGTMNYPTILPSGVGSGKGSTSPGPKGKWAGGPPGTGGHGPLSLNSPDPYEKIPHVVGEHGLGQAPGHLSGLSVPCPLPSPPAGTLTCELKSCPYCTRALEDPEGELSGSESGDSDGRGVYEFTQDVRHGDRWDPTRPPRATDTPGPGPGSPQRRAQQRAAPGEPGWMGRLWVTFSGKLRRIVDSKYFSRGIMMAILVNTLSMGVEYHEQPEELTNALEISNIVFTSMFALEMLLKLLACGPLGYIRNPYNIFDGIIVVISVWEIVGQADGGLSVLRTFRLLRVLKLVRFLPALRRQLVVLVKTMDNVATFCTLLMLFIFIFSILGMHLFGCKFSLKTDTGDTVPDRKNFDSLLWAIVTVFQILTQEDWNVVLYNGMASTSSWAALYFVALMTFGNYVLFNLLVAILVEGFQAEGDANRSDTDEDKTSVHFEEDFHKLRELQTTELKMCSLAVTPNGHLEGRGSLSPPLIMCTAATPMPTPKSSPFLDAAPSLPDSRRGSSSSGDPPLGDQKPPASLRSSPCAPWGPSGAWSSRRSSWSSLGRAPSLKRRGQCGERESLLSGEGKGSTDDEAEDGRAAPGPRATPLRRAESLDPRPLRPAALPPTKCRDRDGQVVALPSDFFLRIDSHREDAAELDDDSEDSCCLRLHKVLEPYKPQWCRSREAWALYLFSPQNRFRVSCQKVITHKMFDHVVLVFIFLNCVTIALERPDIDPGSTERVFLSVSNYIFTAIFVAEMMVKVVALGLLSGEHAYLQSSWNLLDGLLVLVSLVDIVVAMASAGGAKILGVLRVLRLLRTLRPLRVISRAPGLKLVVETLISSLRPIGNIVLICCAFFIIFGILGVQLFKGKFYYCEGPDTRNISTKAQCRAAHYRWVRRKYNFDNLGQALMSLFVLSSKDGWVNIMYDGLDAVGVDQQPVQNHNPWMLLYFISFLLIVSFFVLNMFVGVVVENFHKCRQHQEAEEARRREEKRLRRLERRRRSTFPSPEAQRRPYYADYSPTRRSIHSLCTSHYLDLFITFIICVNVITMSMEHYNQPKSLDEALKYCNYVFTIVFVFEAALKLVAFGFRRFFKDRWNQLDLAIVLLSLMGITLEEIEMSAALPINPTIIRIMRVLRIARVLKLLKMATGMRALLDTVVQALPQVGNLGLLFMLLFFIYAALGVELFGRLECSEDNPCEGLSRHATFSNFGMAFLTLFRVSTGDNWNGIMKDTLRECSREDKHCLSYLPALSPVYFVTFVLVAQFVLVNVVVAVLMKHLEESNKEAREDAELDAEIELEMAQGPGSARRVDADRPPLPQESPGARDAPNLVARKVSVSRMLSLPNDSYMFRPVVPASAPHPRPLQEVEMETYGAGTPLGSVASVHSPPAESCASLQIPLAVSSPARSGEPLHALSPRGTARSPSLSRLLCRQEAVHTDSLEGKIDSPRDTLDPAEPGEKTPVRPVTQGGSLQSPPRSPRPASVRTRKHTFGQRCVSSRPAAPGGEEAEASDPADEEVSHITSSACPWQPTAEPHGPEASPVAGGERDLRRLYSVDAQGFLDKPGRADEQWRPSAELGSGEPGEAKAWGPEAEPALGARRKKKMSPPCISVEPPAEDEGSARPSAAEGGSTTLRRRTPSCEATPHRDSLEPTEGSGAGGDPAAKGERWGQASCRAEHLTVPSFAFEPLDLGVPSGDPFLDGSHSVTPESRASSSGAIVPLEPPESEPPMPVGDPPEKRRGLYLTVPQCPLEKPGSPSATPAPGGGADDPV

| IC50 [1] [nM] | IC50 [2] [nM] | SMILES |
| --- | --- | --- |
| < 300 | 110 | CC1(NC(=O)CN2CCC(CNC(=O)c3cccc(OC(F)(F)F)c3)CC2)CCC1 [Compound 483, N-((1-(2-(1-methylcyclobutylamino)-2-oxoethyl)piperidin-4-yl)methyl)-3-(trifluoromethoxy)benzamide] |
| > 10000 | > 10000 | CCONC(=O)CN1CCC(CNC(=O)c2cc(C(F)(F)F)cc(C(F)(F)F)c2)CC1 [Compound 486, N-((1-(2-(ethoxyamino)-2-oxoethyl)piperidin-4-yl)methyl)-3,5-bis(trifluoromethyl)benzamide] |
| 420 | 130 | Cc1cc(C)cc(C(=O)NCC2CCN(CCNC(=O)C(C)(C)C(F)(F)F)CC2)c1 [Compound 488, 3,5-dimethyl-N-((1-(2-(3,3,3-trifluoro-2,2-dimethylpropanamido)ethyl)piperidin-4-yl)methyl)benzamide] |
| < 300 | 190 | COc1cc(OC)cc(C(=O)NCC2CCN(CCNC(=O)C(C)(C)C(F)(F)F)CC2)c1 [Compound 491, 3,5-dimethoxy-N-((1-(2-(3,3,3-trifluoro-2,2-dimethylpropanamido)ethyl)piperidin-4-yl)methyl)benzamide] |
| < 300 | 160 | CC(C)(C(=O)NCCN1CCC(CNC(=O)c2cccc(Cl)c2)CC1)C(F)(F)F [Compound 494, 3-chloro-N-((1-(2-(3,3,3-trifluoro-2,2-dimethylpropanamido)ethyl)piperidin-4-yl)methyl)benzamide] |
| < 300 | 90 | CC(C)(C(=O)NCCN1CCC(CNC(=O)c2cccc(OC(F)(F)F)c2)CC1)C(F)(F)F [Compound 496, N-((1-(2-(3,3,3-trifluoro-2,2-dimethylpropanamido)ethyl)piperidin-4-yl)methyl)-3-(trifluoromethoxy)benzamide] |
| 770 | 160 | Cc1cc(C)cc(C(=O)NCC2CCN(CCNC(=O)C3(C(F)(F)F)CC3)CC2)c1 [Compound 497, 3,5-dimethyl-N-((1-(2-(1-(trifluoromethyl)cyclopropanecarbox-amido)ethyl)piperidin-4-yl)methyl) benzamide] |
| 770 | 220 | Cc1cc(F)cc(C(=O)NCC2CCN(CCNC(=O)C3(C(F)(F)F)CC3)CC2)c1 [Compound 498, 3-fluoro-5-methyl-N-((1-(2-(1-(trifluoromethyl)cyclopropanecarbox-amido)ethyl)piperidin-4-yl)methyl) benzamide] |
| 590 | 230 | O=C(NCC1CCN(CCNC(=O)C2(C(F)(F)F)CC2)CC1)c1cccc(Cl)c1 [Compound 502, 3-chloro-N-((1-(2-(1-(trifluoromethyl)cyclopropanecarbox-amido)ethyl)piperidin-4-yl)methyl) benzamide] |
| 1550 | 7200 | CC(C)(C)N/C(CN1CCC(CNC(=O)c2cc(C(F)(F)F)cc(C(F)(F)F)c2)CC1)=N\C#N [Compound 503, (Z)-N-((1-(2-(tert-buylamino)-2-(cyanoimino)ethyl)piperidin-4-yl)methyl)-3,5-bis(trifluoromethyl) benzamide] |
| 420 | 420 | O=C(NCC1CCN(CC(=O)N2CCC[C@@H]2C(F)(F)F)CC1)c1cc(F)cc(Cl)c1 [Compound 504, (R)-3-chloro-5-fluoro-N-((1-(2-oxo-2-(2-(trifluoromethyl)pyrrolidin-1-yl)ethyl)piperidin-4-yl)methyl) benzamide] |
| 770 | 580 | COc1cc(F)cc(C(=O)NCC2CCN(CC(=O)N3CCC[C@@H]3C(F)(F)F)CC2)c1 [Compound 505, (R)-3-fluoro-5-methoxy-N-((1-(2-oxo-2-(2-(trifluoromethyl)pyrrolidin-1-yl)ethyl)piperidin-4-yl)methyl) benzamide] |
| 5360 | 1480 | Cc1cc(F)cc(C(=O)NCC2CCN(CC(=O)N3CCC[C@@H]3C(F)(F)F)CC2)c1 [Compound 506, (R)-3-fluoro-5-methyl-N-((1-(2-oxo-2-(2-(trifluoromethyl)pyrrolidin-1-yl)ethyl)piperidin-4-yl)methyl) benzamide] |
| 2980 | 1480 | O=C(NCC1CCN(CC(=O)N2CCC[C@@H]2C(F)(F)F)CC1)c1cccc(Cl)c1 [Compound 507, (R)-3-chloro-N-((1-(2-oxo-2-(2-(trifluoromethyl)pyrrolidin-1-yl)ethyl)piperidin-4-yl)methyl) benzamide] |
| > 10000 | 9220 | O=C(NCC1CCN(CC(=O)N2CCC[C@@H]2C(F)(F)F)CC1)c1cccc(F)c1 [Compound 508, (R)-3-fluoro-N-((1-(2-oxo-2-(2-(trifluoromethyl)pyrrolidin-1-yl)ethyl)piperidin-4-yl)methyl) benzamide] |
| 3970 | > 10000 | CC(C)(C)N/C(CN1CCC(CNC(=O)c2cc(F)cc(C(F)(F)F)c2)CC1)=N\C#N [Compound 510, (Z)-N-((1-(2-(tert-butylamino)-2-(cyanoimino)ethyl)piperidin-4-yl)methyl)-3-fluoro-5-(trifluoromethyl) benzamide] |

| IC50 [1] [nM] | IC50 [2] [nM] | SMILES |
| --- | --- | --- |
| < 300 | 190 | O=C(NCC1CCN(CCNC(=O)C2(C(F)(F)F)CCC2)CC1)c1cccc(Cl)c1 [Compound 512, 3-chloro-N-((1-(2-(1-(trifluoromethyl)cyclobutanecarboxamido)ethyl)piperidin-4-yl)methyl)benzamide] |
| < 300 | 310 | CC(C)(C)NS(=O)(=O)CCN1CCC(CNC(=O)c2cc(F)cc(C(F)(F)F)c2)CC1 [Compound 514, N-((1-(2-(N-tert-butylsulfamoyl)ethyl)piperidin-4-yl)methyl)-3-fluoro-5-(trifluoromethyl)benzamide] |
| 310 | 310 | CN(CCN1CCC(CNC(=O)c2cc(F)cc(C(F)(F)F)c2)CC1)C(=O)C(C)(C)C [Compound 515, 3-fluoro-N-((1-(2-(N-methylpivalamido)ethyl)piperidin-4-yl)methyl)-5-(trifluoromethyl)benzamide] |
| 460 | 220 | CN(CCN1CCC(CNC(=O)c2cc(F)cc(C(F)(F)F)c2)CC1)C(=O)C1CCCC1 [Compound 516, 3-fluoro-N-((1-(2-(N-methylcyclopentanecarboxamido)ethyl)piperidin-4-yl)methyl)-5-(trifluoromethyl)benzamide] |
| 1100 | 420 | CN(CCN1CCC(CNC(=O)c2cc(F)cc(C(F)(F)F)c2)CC1)C(=O)CCC(F)(F)F [Compound 517, 3-fluoro-N-((1-(2-(4,4,4-trifluoro-N-methylbutanamido)ethyl)piperidin-4-yl)methyl)-5-(trifluoromethyl)benzamide] |
| 1310 | 810 | CN(CCN1CCC(CNC(=O)c2cc(F)cc(C(F)(F)F)c2)CC1)C(=O)C1(C)CC1 [Compound 518, N-((1-(2-(N,1-dimethylcyclopropanecarboxamido)ethyl)piperidin-4-yl)methyl)-3-fluoro-5-(trifluoromethyl)benzamide] |
| < 300 | 240 | CC1CCC(C(=O)N(C)CCN2CCC(CNC(=O)c3cc(F)cc(C(F)(F)F)c3)CC2)CC1 (centres unmarked) [Compound 519, N-((1-(2-(N,4-dimethylcyclohexanecarboxamido)ethyl)piperidin-4-yl)methyl)-3-fluoro-5-(trifluoromethyl)benzamide] |
| < 300 | 190 | CN(CCN1CCC(CNC(=O)c2cc(F)cc(C(F)(F)F)c2)CC1)C(=O)C1(C(F)(F)F)CC1 [Compound 520, 3-fluoro-N-((1-(2-(N-methyl-1-(trifluoromethyl)cyclopropanecarbox-amido)ethyl)piperidin-4-yl)methyl)-5-(trifluoromethyl)benzamide] |
| < 300 | 140 | CN(CCN1CCC(CNC(=O)c2cc(F)cc(C(F)(F)F)c2)CC1)C(=O)C1(C(F)(F)F)CCCC1 [Compound 522, 3-fluoro-N-((1-(2-(N-methyl-1-(trifluoromethyl)cyclopentanecarbox-amido)ethyl)piperidin-4-yl)methyl)-5-(trifluoromethyl)benzamide] |
| 5740 | 910 | CN(CCN1CCC(CNC(=O)c2cc(F)cc(C(F)(F)F)c2)CC1)C(=O)NC(C)(C)C [Compound 523, N-((1-(2-(3-tert-butyl-1-methylureido)ethyl)piperidin-4-yl)methyl)-3-fluoro-5-(trifluoromethyl) benzamide] |
| > 10000 | > 10000 | CCNC(=O)N(C)CCN1CCC(CNC(=O)c2cc(F)cc(C(F)(F)F)c2)CC1 [Compound 524, N-((1-(2-(3-ethyl-1-methylureido)ethyl)piperidin-4-yl)methyl)-3-fluoro-5-(trifluoromethyl) benzamide] |
| 2360 | 770 | CN(CCN1CCC(CNC(=O)c2cc(F)cc(C(F)(F)F)c2)CC1)C(=O)NC1CCCCC1 [Compound 525, N-((1-(2-(3-cyclohexyl-1-methylureido)ethyl)piperidin-4-yl)methyl)-3-fluoro-5-(trifluoromethyl) benzamide] |
| > 10000 | 3240 | CCCNC(=O)N(C)CCN1CCC(CNC(=O)c2cc(F)cc(C(F)(F)F)c2)CC1 [Compound 526, 3-fluoro-N-((1-(2-(1-methyl-3-propylureido)ethyl)piperidin-4-yl)methyl)-5-(trifluoromethyl)benzamide] |
| 2650 | 2840 | O=C(CN1CCC(CNC(=O)c2cccc(Cl)c2)CC1)NN1CCCCC1 [Compound 527, 3-chloro-N-((1-(2-oxo-2-(piperidin-1-ylamino)ethyl)piperidin-4-yl)methyl)benzamide] |
| > 10000 | 8540 | CC1(NC(=O)CN2CCC(CNC(=O)c3ccccc3)CC2)CCC1 [Compound 528, N-((1-(2-(1-methylcyclobutylamino)-2-oxoethyl)piperidin-4-yl)methyl) benzamide] |
